Tests used:
[1] = AUC (0 to infinitive) in Sprague-Dawley rat at 10 mg/kg, iv measured after 48 hrs by LC-MS analysis; assay type: ADME, organism-based; design: time 48 hrs, dose 10 mg/kg, route iv; conditions: in vivo
[2] = Brain concentration in ICR mouse at 10 mg/kg, IG measured at 4 hrs by LC-MS analysis; assay type: ADME, organism-based; conditions: po, read-out: Ct
[3] = tested on: PC-12; experiment: Neuroprotective activity against H2O2-induced cell damage in rat PC-12 cells assessed as survival rate at 5 to 10 uM pretreated for 2 hrs followed by H2O2 addition and measured after 24 hrs by MTT assay; assay type: functional; conditions: dose 5-10 µM, time 26 hrs
[4] = biological target: T1, Cholinesterase (Homo sapiens, UniProt P06276); experiment: Binding affinity to human BChE assessed as dissociation constant by surface plasmon resonance assay
[5] = Tmax in Sprague-Dawley rat at 10 mg/kg, IG measured after 48 hrs by LC-MS analysis; assay type: ADME, organism-based; conditions: in vivo, po
[6] = Cytotoxicity against mouse BV-2 cells assessed as cell survival rate at 10 uM by MTT assay; assay type: toxicity, cell-based; conditions: read-out: Activity
[7] = biological target: T1, Cholinesterase; experiment: Inhibition of human BChE using acetylthiocholine iodide or butyrylthiocholine iodide as substrate preincubated for 5 mins followed by substrate addition by Ellman's method
[8] = Brain concentration in ICR mouse at 10 mg/kg, IG measured at 1 hr by LC-MS analysis; assay type: ADME, organism-based; conditions: po, read-out: Ct
[9] = AUC (0 to infinitive) in Sprague-Dawley rat at 10 mg/kg, IG measured after 48 hrs by LC-MS analysis; assay type: ADME, organism-based; design: dose 10 mg/kg, time 48 hrs, route ig; conditions: in vivo, po
[10] = Cmax in Sprague-Dawley rat at 10 mg/kg, iv measured after 48 hrs by LC-MS analysis; assay type: ADME, organism-based; design: dose 10 mg/kg, time 48 hrs, route iv; conditions: in vivo
[11] = Cytotoxicity against human SH-SY5Y cells assessed as cell survival rate at 10 uM by MTT assay; assay type: toxicity, cell-based; conditions: read-out: Activity
[12] = Acute toxicity in ICR mouse assessed as increase in body weight at 1000 mg/kg, po measured after 14 days; assay type: organism-based; conditions: in vivo, 336 h, time 14 day
[13] = tested on: PC-12; experiment: Cytotoxicity against rat PC-12 cells assessed as reduction in cell viability at 10 uM by MTT assay; assay type: toxicity, cell-based; conditions: pc-12, 10 µM
[14] = tested on: SH-SY5Y; experiment: Neuroprotective activity against amyloid beta (1 to 42)-induced cell damage in human SH-SY5Y cells assessed as cell survival at 2 uM pretreated for 2 hrs followed by amyloid beta (1 to 42) addition and measured after 24 hrs by MTT assay; assay type: functional; conditions: time 26 hrs, read-out: Activity
[15] = Acute toxicity in ICR mouse assessed as death at 1000 mg/kg, po measured after 4 hrs; assay type: organism-based; conditions: in vivo
[16] = tested on: HT-22; experiment: Cytotoxicity against mouse HT-22 cells assessed as reduction in cell viability at 20 uM by MTT assay; assay type: toxicity, cell-based; conditions: ht-22, 20 µM
[17] = Plasma concentration in ICR mouse at 10 mg/kg, IG measured at 2 hrs by LC-MS analysis; assay type: ADME, organism-based; conditions: po
[18] = tested on: HT-22; experiment: Cytotoxicity against mouse HT-22 cells assessed as reduction in cell viability at 10 uM by MTT assay; assay type: toxicity, cell-based; conditions: ht-22, 10 µM
[19] = Elimination half life in Sprague-Dawley rat at 10 mg/kg, IG measured after 48 hrs by LC-MS analysis; assay type: ADME, organism-based; conditions: in vivo, po, read-out: beta t1/2 (converted)
[20] = tested on: PC-12; experiment: Cytotoxicity against rat PC-12 cells assessed as reduction in cell viability at 20 uM by MTT assay; assay type: toxicity, cell-based; conditions: pc-12, 20 µM
[21] = Acute toxicity in ICR mouse assessed as effect on consumption of water and food at 1000 mg/kg, po measured after 14 days; assay type: organism-based; conditions: in vivo, 336 h, time 14 day
[22] = Brain concentration in ICR mouse at 10 mg/kg, IG measured at 0.25 hrs by LC-MS analysis; assay type: ADME, organism-based; conditions: po, read-out: Ct
[23] = tested on: BV-2; experiment: Cytotoxicity against mouse BV-2 cells assessed as reduction in cell viability at 20 uM by MTT assay; assay type: toxicity, cell-based; conditions: bv-2, 20 µM
[24] = Cytotoxicity against mouse HT-22 cells assessed as cell survival rate at 10 uM by MTT assay; assay type: toxicity, cell-based; conditions: read-out: Activity
[25] = Oral bioavailability in Sprague-Dawley rat at 10 mg/kg measured after 48 hrs by LC-MS analysis; assay type: ADME, organism-based; conditions: in vivo
[26] = Cytotoxicity against rat PC-12 cells assessed as cell survival rate at 10 uM by MTT assay; assay type: toxicity, cell-based; conditions: read-out: Activity
[27] = Plasma concentration in ICR mouse at 10 mg/kg, po measured at 0.25 hrs by LC-MS analysis; assay type: ADME, organism-based
[28] = Microsomal stability in human liver microsomes assessed as half life measured after 120 mins; assay type: ADME, Microsome
[29] = Plasma concentration in ICR mouse at 10 mg/kg, IG measured at 6 hrs by LC-MS analysis; assay type: ADME, organism-based; conditions: po
[30] = tested on: SH-SY5Y; experiment: Cytotoxicity against human SH-SY5Y cells assessed as reduction in cell viability at 10 uM by MTT assay; assay type: toxicity, cell-based
[31] = tested on: BV-2; experiment: Cytotoxicity against mouse BV-2 cells assessed as reduction in cell viability at 10 uM by MTT assay; assay type: toxicity, cell-based; conditions: bv-2, 10 µM
[32] = Brain concentration in ICR mouse at 10 mg/kg, IG measured at 2 hrs by LC-MS analysis; assay type: ADME, organism-based; conditions: po, read-out: Ct
[33] = Brain concentration in ICR mouse at 10 mg/kg, IG measured at 0.5 hrs by LC-MS analysis; assay type: ADME, organism-based; conditions: po, read-out: Ct
[34] = Plasma concentration in ICR mouse at 10 mg/kg, po measured at 1 hr by LC-MS analysis; assay type: ADME, organism-based
[35] = tested on: SH-SY5Y; experiment: Neuroprotective activity against amyloid beta (1 to 42)-induced cell damage in human SH-SY5Y cells assessed as cell survival rate at 25 uM pretreated for 2 hrs followed by amyloid beta (1 to 42) addition and measured after 24 hrs by MTT assay; assay type: functional; conditions: time 26 hrs
[36] = tested on: SH-SY5Y; experiment: Cytotoxicity against human SH-SY5Y cells assessed as reduction in cell viability at 20 uM by MTT assay; assay type: toxicity, cell-based
[37] = n-octanol-water partition coefficient, log P of the compound by HPLC analysis; assay type: physicochemical
[38] = biological target: T1, Cholinesterase; experiment: Inhibition of human BChE assessed as inhibition constant
[39] = Tmax in Sprague-Dawley rat at 10 mg/kg, iv measured after 48 hrs by LC-MS analysis; assay type: ADME, organism-based; conditions: in vivo
[40] = Cmax in Sprague-Dawley rat at 10 mg/kg, IG measured after 48 hrs by LC-MS analysis; assay type: ADME, organism-based; design: time 48 hrs, dose 10 mg/kg, route ig; conditions: in vivo, po
[41] = Plasma concentration in ICR mouse at 10 mg/kg, IG measured at 4 hrs by LC-MS analysis; assay type: ADME, organism-based; conditions: po
[42] = Elimination half life in Sprague-Dawley rat at 10 mg/kg, iv measured after 48 hrs by LC-MS analysis; assay type: ADME, organism-based; conditions: in vivo, read-out: beta t1/2 (converted)
[43] = Brain concentration in ICR mouse at 10 mg/kg, IG measured at 6 hrs by LC-MS analysis; assay type: ADME, organism-based; conditions: po, read-out: Ct
[44] = Permeability of compound incubated for 18 hrs by PAMPA-BBB assay; assay type: ADME; conditions: read-out: permeability
[45] = Plasma concentration in ICR mouse at 10 mg/kg, IG measured at 0.5 hrs by LC-MS analysis; assay type: ADME, organism-based; conditions: po

T1 sequence (P06276 whole entry): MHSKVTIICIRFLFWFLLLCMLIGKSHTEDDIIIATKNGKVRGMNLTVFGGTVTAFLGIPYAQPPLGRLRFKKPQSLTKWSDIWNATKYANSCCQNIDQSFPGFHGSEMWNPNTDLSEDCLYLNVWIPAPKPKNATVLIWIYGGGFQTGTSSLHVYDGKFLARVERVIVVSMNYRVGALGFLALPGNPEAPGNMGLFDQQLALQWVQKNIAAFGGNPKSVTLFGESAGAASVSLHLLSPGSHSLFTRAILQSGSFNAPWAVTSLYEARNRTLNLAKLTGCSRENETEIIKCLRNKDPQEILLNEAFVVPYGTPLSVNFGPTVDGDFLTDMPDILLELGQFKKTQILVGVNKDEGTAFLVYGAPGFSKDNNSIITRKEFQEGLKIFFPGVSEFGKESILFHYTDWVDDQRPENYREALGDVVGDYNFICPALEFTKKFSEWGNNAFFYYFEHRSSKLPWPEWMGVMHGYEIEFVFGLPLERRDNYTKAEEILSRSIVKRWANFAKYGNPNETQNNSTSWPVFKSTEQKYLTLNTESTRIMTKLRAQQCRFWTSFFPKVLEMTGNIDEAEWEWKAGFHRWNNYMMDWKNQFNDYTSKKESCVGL

CCN(CC)Cc1ccccc1CNC(=O)c1cccc(NC(=O)c2ccc(F)cc2)c1
AUC(0-inf) [1]: 2170 ng·h/mL | concentration at 4 h [2]: 16.4 ng/g | Activity [3]: 61.7% | Kd [4]: 0.37 nM | Tmax [5]: 0.63 h | viability at 10 µM [6]: > 70% | IC50 [7]: 0.08 nM | concentration at 1 h [8]: 37.5 ng/g | AUC(0-inf) [9]: 497 ng·h/mL | Cmax [10]: 1640 ng/mL | viability at 10 µM [11]: > 70% | Activity [12]: Non-Toxic | Activity [13]: Non-Toxic | viability at 2 µM [14]: 68% | Activity [15]: Non-Toxic | Activity [16]: Non-Toxic | concentration at 2 h [17]: 18.4 ng/mL | Activity [18]: Non-Toxic | half-life [19]: 28.1 h | Activity [20]: Non-Toxic | Activity [21]: Non-Toxic | concentration at 0.25 h [22]: 25.4 ng/g | Activity [23]: Non-Toxic | viability at 10 µM [24]: > 70% | bioavailability [25]: 21.7% | viability at 10 µM [26]: > 70% | concentration at 0.25 h [27]: 25.7 ng/mL | half-life [28]: 1.55 h | concentration at 6 h [29]: 2.95 ng/mL | Activity [30]: Non-Toxic | Activity [31]: Non-Toxic | concentration at 2 h [32]: 17.7 ng/g | concentration at 0.5 h [33]: 26.8 ng/g | concentration at 1 h [34]: 20.9 ng/mL | Activity [35]: 64.12% | Activity [36]: Non-Toxic | logP [37]: 1.7 | Ki [38]: 0.61 nM | Tmax [39]: 6 min | Cmax [40]: 36.4 ng/mL | concentration at 4 h [41]: 17.4 ng/mL | half-life [42]: 17.2 h | concentration at 6 h [43]: 15.3 ng/g | Papp at 18 h [44]: 10.2 ×10⁻⁶ cm/s | concentration at 0.5 h [45]: 30.2 ng/mL
